# From patent publication US20190125735A1, “INHIBITION OF P38 MAPK FOR THE TREATMENT OF CANCER” (Board of Regents, The University of Texas System, priority 2015, published 2019)
# How the values were obtained:
# [1] = system: HMLE-Snail-ER and HMLE-Twist-ER cells; test: FACS CD44high/CD24low of 4-OHT-treated HMLE-Snail-ER and HMLE-Twist-ER cells; format: cell-based, human; details: 4-OHT-treated cells, SB203580 exposure
# Experimental: FIGS. 15A-15L: p38 inhibition compromises the acquisition and maintenance of EMT and stem cell properties in vitro. […] Cells were harvested and the corresponding lysates were analyzed by immunoblotting for FOXC2, E-cadherin and mesenchymal markers. β-actin was used as a loading control. […] Cells were harvested at the indicated timepoints and the corresponding lysates were analyzed by immunoblotting for FOXC2, E-cadherin and mesenchymal markers. β-actin was used as a loading control. […] One thousand cells were seeded per well in ultra-low attachment plates and cultured for 7-10 days. Spheres with a diameter greater than 75 μm were counted. The data are reported as the number of spheres formed/1000 seeded cells±SEM. […] Data are presented as mean±SEM. […] The corresponding lysates were analyzed by immunoblotting for FOXC2, E-cadherin and mesenchymal markers. β-actin was used as a loading control. (F) The sphere-forming efficiency of 4-OHT-treated HMLE-Twist-ER cells, transduced with control shRNA (shControl) or p38 shRNA (shp38), was determined. […] (H) The sphere-forming efficiency of the indicated cells was determined in the presence of vehicle or SB203580. […] (J) The relative wound closure by the indicated cells, treated with vehicle or SB203580, was measured by image analysis and represented in a graphical format. […] Degradation of FITC-gelatin was quantified by image analysis. n=150 cells/sample. […]
# [2] = system: HMLE-Snail, HMLE-Twist, MDA-MB-231 and SUM159 cells; test: EMT marker immunoblotting in mesenchymal mammary cells; format: cell-based, human; details: relative to vehicle-treated cells
# Experimental: It was next ascertained whether p38 inhibition compromises the maintenance of the established EMT phenotype.
# Immunoblotting and immunofluorescence (Mani et al., 2008) were performed as previously described. Primary antibodies were as follows: β-actin (Sigma, St Louis, Mo., USA; A3853), mouse anti-human FOXC2 (Dr. Naoyuki Miura, Hamamatsu University School of Medicine, Japan), goat polyclonal anti-FOXC2 (Santa Cruz Biotechnology, Dallas, Tex., USA; sc-21397), p-p38 (Cell Signaling, Danvers, Mass., USA; 4511), p38 (Cell Signaling; 9211), E-cadherin (BD Biosciences, San Jose, Calif., USA; 61081), fibronectin (BD Biosciences; 610077), vimentin (Novus Biologicals, Littleton, Colo., USA; NB200-623), ZEB1 (Novus Biologicals; NBP1-05987), and HA (Covance, Princeton, N.J., USA; MMS-101P).
# [3] = system: mesenchymal cells; test: Scratch/wound-healing assay of mesenchymal mammary cells; format: cell-based, human
# Excerpt: The effects of p38 inhibition on invasive potential, which strongly correlates with the formation of invadopodia, was investigated. These specialized actin-based cell membrane protrusions secrete matrix metalloproteinases, enabling degradation of the nearby extracellular matrix (Eckert et al., 2011). The formation of invadopodia was quantified by assessing the ability of cells to degrade FITC-conjugated gelatin.
# Quantification of invadopodia (Eckert et al., 2011), scratch/wound-healing assays (Sarkar et al., 2015) fluorescence-activated cell sorting (FACS), and sphere-formation assays (Mani et al., 2008) were conducted as described previously.
# [4] = system: HMLER cells; test: Sphere formation of HMLER cells expressing FOXC2 variants; format: cell-based, human
# Experimental: For this, phosphomimetic FOXC2(S367E) and non-phosphorylatable FOXC2(S367A) mutants were generated and their ability to bestow mesenchymal and stem-cell traits relative to wild-type FOXC2 (referred to as FOXC2) was evaluated.
# [5] = system: DU145 cells; test: DU145 subcutaneous tumors in NOD/SCID mice; format: in vivo; details: subcutaneous dosing 5 days/week; SB203580 0.2 μmols per mouse, Enzalutamide 10 mg/kg; vs vehicle
# Experimental: To investigate the effect of inhibition of FOXC2-dependent EMT/CSC attributes on tumor formation in vivo, NOD/SCID mice were subcutaneously injected with DU145 cells and began treatment in vivo, after formation of palpable tumors.
# Immediately after sacrificing the mice, ˜100 μl blood was isolated via venipuncture in EDTA-treated collection tubes and stored on ice. Within 30 minutes, the blood was spun down at 1200 rpm for 5 minutes, and the pellet resuspended in 1 ml ACK-lysing buffer (Life Tech) and further incubated for 3-5 minutes. Cells were washed once with PBS, resuspended in RPMI with 10% FBS and pen/strep, and cultured on 10 cm tissue culture dishes. RFP-positive colonies (originating from the labeled DU145 cells injected into mice) were counted after 3-4 days in culture and quantified.
# ˜4 week-old male NOD.CB17-Prkdcscid/J mice were purchased from the Jackson Laboratory (Maine, USA). […] Once palpable tumors were discernable, tumor-bearing mice were randomly segregated into 4 groups, and drug treatment was initiated every 24 hours for 5 days/week. […] Investigators were blinded to the group allocation while assessing experimental outcomes. At the end of the treatment period, tumors were excised, average diameter calculated using calipers, and tumor weight noted. […]
# [6] = system: mouse BCR-ABL+ ALL cells; test: BCR-ABL+ ALL model in NOD-SCID mice; format: in vivo; details: dasatinib 10 mg/kg oral, dexamethasone 1 mg/kg oral, SB203580 40 mg/kg i.p.; treatment from day 5
# Excerpt: Leukemia progression was monitored by both bioluminescence imaging and quantifying mCherry+ ALL cells in peripheral blood samples by flow cytometry. […] Non-obese diabetic severe combined immunodeficient (NOD-SCID) mice were housed under high-barrier conditions in the Department of Veterinary Medicine and Surgery at MD Anderson. To generate the in vivo leukemia model, six to eight weeks old NOD-SCID mice were intravenously injected with luciferase- and mCherry-expressing BCR-ABL+ mouse leukemic cells (2×10^6 cells); engraftment of the transplanted cells was confirmed by bioluminescence imaging. For bioluminescence imaging, each mouse was intraperitoneally injected with D-Luciferin (150 mg/kg) and imaged using the IVIS Lumina imaging system (PerkinElmer).
# Leukemia treatment started 5 days after transplantation. […] Treatment was continued until mice were succumbed to disease.
# Bone marrow samples from the mice were harvested 4 days after initiating the drug treatment. […] Peripheral blood specimens were directly harvested from mice tail tips into PBS supplemented with ethylenediaminetetraacetic acid (2 mM). Red blood cells were subjected to lysis and were neutralized with 20% fetal bovine serum supplemented with alpha minimum essential medium. mCherry+ leukemic cells in the peripheral blood were detected by flow cytometry analysis after red blood cells were lysed.
# [7] = system: BCR-ABL+ mouse ALL cells; details: MSC co-culture
# Experimental: To measure cell proliferation, co-cultures of MSCs and luciferase-labeled leukemic cells were mixed with D-Luciferin (Biosynth, Itasca, Ill.) to a final concentration of 0.5 mg/mL. Samples were incubated at room temperature for 1 minute and were imaged with the IVIS Lumina imaging system (PerkinElmer, Waltham, Mass.).
# [8] = system: BCR-ABL+ mouse ALL cells; details: MSC co-culture; remark: listed apart in the source
# Experimental: Leukemic cell apoptosis was analyzed by flow cytometry using BD LSRFortessa or Accuri C6 flow cytometer (BD Biosciences) after the cells were stained with Annexin V (BD Biosciences, San Jose, Calif.). Data were analyzed by FlowJo software (Ashland, Oreg.).
smiles,measurement,setting,value
"C[S+]([O-])c1ccc(-c2nc(-c3ccc(F)cc3)c(-c3ccncc3)[nH]2)cc1 (stereo not drawn) [SB203580, 4-(4-Fluorophenyl)-2-(4-methylsulfinylphenyl)-5-(4-pyridyl) 1H-imidazole]",CD44^high/CD24^low marker profile,[1],failed to acquire
same,Expression of EMT markers,[2],altered the expression of EMT markers
same,Migratory capacity,[3],markedly reduced the migratory capacity of mesenchymal cells
same,Sphere-forming capacity,[4]; HMLER-FOXC2(S367E) cells,retained the ability to form spheres even in the presence of SB203580
same,Sphere-forming capacity,[4]; HMLER-FOXC2 cells,reduced
same,Tumor size (volume and weight),[5],no appreciable change in tumor size
same,Leukemia progression and survival (therapeutic efficacy),[6],did not slow leukemia progression or prolong survival
same,Proliferation of leukemic cells,[7],did not affect proliferation or apoptosis of leukemic cells
same,Apoptosis of leukemic cells,[8],did not affect proliferation or apoptosis of leukemic cells
